This assay relates to erectile dysfunction. Put plainly: Patient-reported erectile dysfunction symptoms.

Each structure is given as a SMILES string.

Method: The patient was placed on a regimen of 5,0 mg L-methylfolate and 2 mg methyl-B12 per day.
The patient was placed on a regimen of 2.8 mg L-methylfolate and 2 mg methyl-B12 per day.
The patient was placed on a regimen of 5.0 mg L-methylfolate and 2 mg methyl-B12 per day.
The patient was placed on a regimen of L-methylfolate, methyl-B12, and pyridoxal-5-phosphate (PSP; active vitamin B6) twice per day.
The patient was placed on a regimen of L-methylfolate, methyl-B12, and pyridoxal-5-phosphate (P5P; active vitamin B6) twice per day.

Take `CCCc1nn(C)c2c(=O)[nH]c(-c3cc(S(=O)(=O)N4CCN(C)CC4)ccc3OCC)nc12` [Viagra]: the “effect on erectile dysfunction (patient history)” value is “ineffective” (Patient 20, 50 mg for 2 months) and “ineffective” (Patient 21, 20 mg for 1 month).

Values taken from patent publication US20120329749A1, “Methods Of Preventing Or Treating Disease States Related To Certain Metabolic Abnormalities” (priority 2011, published 2012).
